The record followed here is patent US20190275040A1, “COMPOUNDS AND METHODS FOR TREATING OR PREVENTING ALZHEIMER'S DISEASE” (YALE UNIVERSITY, priority 2016, published 2019).

SMILES strings stand for the structures.

The assay deals with Aβo-induced suppression of LTP in hippocampal slices. Description: Hippocampal CA3-CA1 LTP in acute brain slices with or without Aβo. It counts as cell-based, mouse. Conditions: WT slices. The procedure:
FIG. 3A depicts WT slices that were treated with either vehicle or Aβo 30 min prior to theta burst stimulation (TBS). The slope of the field excitatory postsynaptic potential (fEPSP) is plotted as a function of time. Data are graphed as mean±SEM (n=6-12). Inset, representative traces immediately before TBS and 60 min post-TBS (red) are superimposed. FIG. 3B depicts WT and Pyk2−/− brain slices in the absence of Aβo, plotted as in FIG. 3A. FIG. 3C depicts average fEPSPs at 50-60 min post-TBS plotted for the indicated conditions as mean±SEM (n=3-20). Where indicated, 500 nM PF719 kinase inhibitor was pre-incubated with WT slices for 60 min prior to addition of Aβo or vehicle for 30 min, and then TBS. One-way ANOVA, **, p<0.01.
The role of Pyk2 in Aβo-induced disruption of synaptic plasticity using hippocampal CA3 to CA1 LTP has also been evaluated, comparing WT and Pyk2−/− slices. […]
400-μm coronal slices were prepared as described elsewhere herein and submerged in a recording chamber (BSC-PC, Warner Instruments) containing aCSF with 2.4 mM CaCl2 that was continuously oxygenated (95% O2, 5% CO2). […] Extracellular field excitatory post-synaptic potentials (fEPSPs) were recorded using a glass microelectrode (2-6 MS2) (4878, World Precision Instruments) filled with aCSF, and placed in the Stratum radiatum of CA1 neurons. […]

In the case of `CCOc1ccc2nc(SCc3nc(N)nc(N4CCOCC4)n3)sc2c1` [PF-719, 4-(((6-ethoxybenzo[d]thiazol-2-yl)thio)methyl)-6-morpholino-1,3,5-triazin-2-amine], the “Aβo-induced suppression of LTP” value (500 nM, Aβo 30 min before TBS) was “protects these slices from Aβo-induced suppression”. Moreover, the “LTP without Aβo” value (nM concentrations (500 nM, 60 min pre-incubation)) is “does not block LTP”.
